# Results: patent US20260200943A1, “COMPOUNDS FOR TREATING CANCER” (Genesis Therapeutics, Inc., priority 2022, published 2026)
# Experiments:
# CDK2/CyclinA2 [1] = target: T1, CDK2/CyclinA2 (Homo sapiens, UniProt P24941); experiment: CDK2/CyclinA2 ChEF Assay (Table A); format: biochemical; settings: for Ki: 10xKm, read-out: CDK2/CCNA2 ChEF 10xKm Ki: Average Ki
# T1 construct: Wild-type, full length CDK2 in complex with wildtype, full length CyclinA2: Carna Cat #04-103; purchased Carna 04-103
# Procedure: 500 nL of 50× compound in 100% DMSO is added to a 384-well low volume, white assay plate. 19.5 μL of 1.3×CDK2/CyclinA2 (Wild-type, full length CDK2 in complex with wildtype, full length CyclinA2: Carna Cat #04-103 diluted in assay buffer (50 mM Hepes, 0.01% Brij-35, 10 mM MgCl2, 0.5 mM EGTA, 1% Glycerol, and 1.2 mM DTT) is added to the plates on top of the compound and pre-incubated for 30 minutes at room temperature. Following the incubation, 5 μL of 5×Sox-chromophore (CSox) labeled peptide substrate (AQT0255, AssayQuant) & ATP diluted in assay buffer is added to the plate to initiate the reaction. The assay is incubated at room temperature for 45 min after initiation. The CSox peptide substrate is phosphorylated by CDK2/A2 upon ATP hydrolysis.
# The fluorescent intensity measurement of the assay plate for all assays described above is read on a microplate reader once the assay is initiated and again at the completion of the assay. Phosphorylation of the CSox-based peptide substrate sensor results in an immediate increase in fluorescence. These raw fluorescence intensity values are normalized to calculate percent inhibition, which are fit to a four-parameter logistic curve and IC50 values are calculated. IC50 values are converted to Ki using substrate, KM^app values, and the Cheng-Prusoff equation.
# CDK2/CyclinA2 [2] = target: T1, CDK2/CyclinA2; experiment: CDK2/Cyclin A2 Mobility Shift Assay (Caliper, Table B); format: biochemical; settings: for Ki: Caliper mobility shift, 10xKm, read-out: CDK2/CCNA2 Caliper 10xKm Ki: Average Ki
# Procedure: 10 nL of 2000× compound in 100% DMSO is added to a 384-well polypropylene assay plate. 15 μL of 1.3×CDK2/A2 and 1.3× fluorescent substrate (Wild-type, full length CDK2 in complex with wildtype, full length CyclinA2: Carna Cat #04-103 and FL-Peptide 18: PerkinElmer Cat #760362) diluted in kinase buffer (50 mM Hepes, 0.01% Brij-35, 10 mM MgCl2, 1 mM EGTA, 0.05% BSA, and 2 mM DTT) is added to the plates on top of the compound, mixed, and pre-incubated for 30 minutes at room temperature. The fluorescently labeled peptide substrate is phosphorylated by CDK2/A2 upon ATP hydrolysis. Following the incubation, 5 μL of 4×ATP diluted in kinase buffer is added to the plate to initiate the reaction. Following the 30-minute incubation, the reaction is stopped by adding 75 μL of stopping buffer containing 0.5 M EDTA.
# The assay plate is then read on a Lab Chip EZ Reader which separates the fluorescently labeled substrate and product peptides through a mobility difference. The phosphorylation of the substrate imparts a negative charge, which allows differences in separation as both are pulled through the microfluidic chip. The ratio of substrate and product values are used to generate percent conversion. These raw percent conversion values are normalized to calculate percent inhibition, which are fit to a four-parameter logistic curve and IC50 values are calculated. IC50 values are converted to Ki through using substrate and Km^app values, and the Cheng-Prusoff equation.
Compound,Ki (CDK2/CyclinA2 [1]) [µM],CDK2/CCNA2 ChEF 10xKm Ki: CDK2/A2 Selectivity over CDK9/T1 (CDK2/CyclinA2 [1]),Ki (CDK2/CyclinA2 [2]) [µM],CDK2/CCNA2 Caliper 10xKm Ki: CDK2/A2 Selectivity over CDK1/B1 (CDK2/CyclinA2 [2]),CDK2/CCNA2 Caliper 10xKm Ki: CDK2/A2 Selectivity over CDK9 (CDK2/CyclinA2 [2]),CDK2/CCNA2 Caliper 10xKm Ki: CDK2/A2 Selectivity over CDK6/D3 (CDK2/CyclinA2 [2])
"O=C1NCCCCCNS(=O)(=O)c2ccc(c(F)c2)Nc2cc([nH]n2)[C@H]2CC[C@H](C2)O1 [Compound 90, (1^1S,1^3R,Z)-4^2-fluoro-2^1H-14-oxa-5-thia-3,6,12-triaza-2(5,3)-pyrazola-4(1,4)-benzena-1(1,3)-cyclopentanacyclotetradecaphan-13-one 5,5-dioxide]",0.001 to 0.025,A (A>10),0.001 to 0.025,A (A>10),A (A>10),
"CC1(C)CCCNS(=O)(=O)c2ccc(c(F)c2)Nc2cc([nH]n2)[C@H]2CC[C@H](C2)OC(=O)N1 [Compound 101, (1^1S,1^3R,Z)-4^2-fluoro-10,10-dimethyl-2^1H-13-oxa-5-thia-3,6,11-triaza-2(5,3)-pyrazola-4(1,4)-benzena-1(1,3)-cyclopentanacyclotridecaphan-12-one 5,5-dioxide]",0.001 to 0.025,A (A>10),0.001 to 0.025,A (A>10),A (A>10),
"O=C1NCCCNS(=O)(=O)c2ccc(c(F)c2)Nc2cc([nH]n2)[C@H]2CC[C@H](C2)O1 [Compound 98, (1^1S, 1^3R,Z)-4^2-fluoro-2^1H-12-oxa-5-thia-3,6, 10-triaza-2(5,3)-pyrazola-4(1,4)-benzena-1(1,3)-cyclopentanacyclododecaphan-11-one 5,5-dioxide]",0.025 to 0.1,B (5≤B<10),0.025 to 0.1,A (A>10),A (A>10),
"O=C1NCCOCCNS(=O)(=O)c2ccc(c(F)c2)Nc2cc([nH]n2)[C@H]2CC[C@H](C2)O1 [Compound 89, (1^1S,1^3R,Z)-4^2-Fluoro-2^1H-9,14-dioxa-5-thia-3,6,12-triaza-2(5,3)-pyrazola-4(1,4)-benzena-1(1,3)-cyclopentanacyclotetradecaphan-13-one 5,5-dioxide]",0.001 to 0.025,A (A>10),0.001 to 0.025,A (A>10),A (A>10),
"O=C1NCCCn2cc(cn2)S(=O)(=O)N2CCC(CC2)Nc2cc([nH]n2)[C@H]2CC[C@H](C2)O1 [Compound 95, (1^1S, 1^3R,2^4Z,6^4E)-2^1H,6^1H-12-oxa-5-thia-3,10-diaza-4(4,1)-piperidina-2(5,3),6(4,1)-dipyrazola-1(1,3)-cyclopentanacyclododecaphan-11-one 5,5-dioxide]",≥ 0.1,C (C<5),0.025 to 0.1,B (5≤B<10),B (5≤B<10),
"CN1CCNC(=O)O[C@@H]2CC[C@@H](C2)c2cc(n[nH]2)Nc2ccc(cc2F)S(=O)(=O)NCC1 [Compound 100, (1^1S, 1^3R,Z)-4^2-fluoro-9-methyl-2^1H-14-oxa-5-thia-3,6,9,12-tetraaza-2(5,3)-pyrazola-4(1,4)-benzena-1(1,3)-cyclopentanacyclotetradecaphan-13-one 5,5-dioxide]",0.001 to 0.025,A (A>10),0.001 to 0.025,A (A>10),A (A>10),

# The next lines start with the values.
Ki (CDK2/CyclinA2 [1]) [µM],CDK2/CCNA2 ChEF 10xKm Ki: CDK2/A2 Selectivity over CDK9/T1 (CDK2/CyclinA2 [1]),Ki (CDK2/CyclinA2 [2]) [µM],CDK2/CCNA2 Caliper 10xKm Ki: CDK2/A2 Selectivity over CDK1/B1 (CDK2/CyclinA2 [2]),CDK2/CCNA2 Caliper 10xKm Ki: CDK2/A2 Selectivity over CDK9 (CDK2/CyclinA2 [2]),CDK2/CCNA2 Caliper 10xKm Ki: CDK2/A2 Selectivity over CDK6/D3 (CDK2/CyclinA2 [2]),Compound
0.001 to 0.025,A (A>10),0.001 to 0.025,A (A>10),A (A>10),,"O=C1NCCCCCn2cc(cn2)S(=O)(=O)N2CCC(CC2)Nc2cc([nH]n2)[C@H]2CC[C@H](C2)O1 [Compound 96, (1^1S,1^3R,2^4Z,6^4E)-2^1H,6^1H-14-oxa-5-thia-3,12-diaza-4(4,1)-piperidina-2(5,3),6(4,1)-dipyrazola-1(1,3)-cyclopentanacyclotetradecaphan-13-one 5,5-dioxide]"
< 0.001,A (A>10),< 0.001,A (A>10),A (A>10),A (A>10),O=C1NCCCCCCCNS(=O)(=O)c2ccc(c(F)c2)Nc2cc([nH]n2)[C@H]2CC[C@H](C2)O1 [Compound 92]
< 0.001,A (A>10),< 0.001,A (A>10),A (A>10),A (A>10),"O=C1NCC=CCNS(=O)(=O)c2ccc(c(F)c2)Nc2cc([nH]n2)[C@H]2CC[C@H](C2)O1 [Compound 102, (1^1S,1^3R,2^4Z)-4^2-fluoro-2^1H-13-oxa-5-thia-3,6,11-triaza-2(5,3)-pyrazola-4(1,4)-benzena-1(1,3)-cyclopentanacyclotridecaphan-8-en-12-one 5,5-dioxide]"
< 0.001,A (A>10),< 0.001,A (A>10),A (A>10),A (A>10),"O=C1NCCCCNS(=O)(=O)c2ccc(c(F)c2)Nc2cc([nH]n2)[C@H]2CC[C@H](C2)O1 [Compound 99, (1^1S, 1^3R,Z)-4^2-fluoro-2^1H-13-oxa-5-thia-3,6,11-triaza-2(5,3)-pyrazola-4(1,4)-benzena-1(1,3)-cyclopentanacyclotridecaphan-12-one 5,5-dioxide]"
